Measured values reported in US20220226321A1, “INHIBITOR OF MNK FOR THE TREATMENT OF NEUROPATHIC PAIN” (Board of Regents, The University of Texas System, priority 2019, published 2022).
Entries after “also recorded” stand apart in the source; their conditions may differ.

Tests used:
DLBCL cell lines = settings: cited from earlier work
DRG [1] = test: measurement of protein synthesis by puromycin incorporation in DRG; format: in vivo, mouse; settings: single dose 10 mg/kg
Protocol: Measurement of Protein Synthesis. Eight to 12-week-old wild-type and eiF4E^S209A mice were injected with puromycin (10 mg/kg via the intraperitoneal route, i.p.), and 1 hr later, DRGs were collected and processed for Western blotting using anti-puromycin monoclonal antibody (PMY-2A4, KeraFast). […] Protein synthesis was determined by measuring total lane signal from 250-15 KDa and subtracting unlabeled protein control. Signals were quantified using Image Lab (BioRad, Hercules, Calif.).

[2] = test system: cultured mouse DRG neurons; test: Western blot of cultured primary DRG neurons treated with eFT508; format: cell-based
[3] = test system: eIF4E phosphorylation at serine 209; settings: in vitro, tumor cell lines; read-out: IC50, reduction of eIF4E phosphorylation at serine 209; cited from earlier work
DRG neurons = test: whole-cell patch recording of acutely dissociated DRG neurons; format: cell-based, mouse
Protocol: Acute dissociation of mouse DRG neurons. Thirty mice were deeply anesthetized with isoflurane and the bilateral C4-5, T3-5, and L4-5 ganglia were surgically exposed and removed. The ganglia were placed in a flask containing trypsin (6.25 μg/mL, Hyclone) and type IA collagenase (0.25 mg/mL, Sigma-Aldrich) in DMEM and shaken for 50 min in a heated (37° C.) bath. After the cells were washed and mechanically dispersed with a fire polished Pasteur pipette, they were plated on poly-L-lysine-coated glass sheets and held in culture dishes with DMEM (10% FBS) until use within 6 hours after plating.
Whole-cell patch recording of spontaneous and evoked action potential in acutely dissociated mice DRG neurons. A previously described protocol was used (Li et al., 2017) for current-clamp recording. The internal solution contained 135 mM K-gluconate, 5 mM KCl, 5 mM Mg-ATP, 0.5 mM Na2GTP, 5 mM HEPES, 2 mM MgCl2, 5 mM EGTA, and 0.5 mM CaCl2 adjusted to pH 7.4 with KOH and the bath ACSF solution. DRG neurons were held at 0 pA, and the action potential current threshold was evoked using a series of 300-ms depolarizing current injections in 10-pA steps from −50 pA. The current that induced the first action potential that was defined as 1× rheobase. Only neurons with a resting membrane potential of at least −40 mV, stable baseline recordings, and evoked spikes that overshot 0 mV were used for further experiments and analysis. The DRG neurons were then held at 0 pA to record spontaneous action potential for 5 min. The different times rheobase injections for 500 ms was applied to induce action potential spike-burst responses. Series resistance (Rs) was compensated to above 70% for the recorded DRG neurons. All recordings were made at room temperature.

mice = test: open field; format: in vivo, mouse; settings: 10 mg/kg i.p., 1 hour; vehicle had the same effect
Protocol: Open field. […] Movement in the maze was video recorded for 10 minutes via ceiling-mounted cameras and tracked using a custom script in MATLAB-2015b. The script outputs total distance traveled and path tracking.

infralimbic cortex = test: axon initial segment (AIS) length in infralimbic cortex, immunohistochemistry; format: in vivo, mouse; settings: 10 mg/kg p.o. daily for 7 days, male SNI mice
Protocol: Immunohistochemistry. All mice were perfused at 3 weeks post-surgery (the day after rule-shifting). Mice were deeply anesthetized with a mixture of ketamine (80 mg/kg) and xylazine (12 mg/kg; i.p.) and then transcardially perfused with 1× phosphate buffered saline (PBS; 4° C., pH 7.4) followed by 10% formalin in 0.1 M phosphate buffer (PB; 4° C., pH 7.4; 25 mL at a flow rate of […]) using a perfusion pump. Brains were dissected and transferred […] to a 30% sucrose in 0.1M PB. Once the brains sunk in sucrose, they were frozen in OCT over dry ice. Coronal sections (30 μm) were cut using a cryostat and a hole was placed in the left hemisphere to demarcate the left (ipsilateral) hemisphere. Free floating sections were then washed in 0.1M PB, and then incubated in blocking solution (10% Normal Goat Serum, 0.3% Triton-X 100 in 0.1M PB) for 1 hr at room temperature with gentle rocking/agitation. Sections were incubated in primary antibody (mouse-anti-AnkyrinG; UC Davis/NIH NeuroMab Facility, clone N106/36 RRID:AB_10673030; 2 μg/ml working concentration) diluted in blocking solution for 3 hrs at room temperature. […]
Image Analysis. […] For each image, 30 segments were analyzed in layers 2/3 and layers 5/6 of the ipsilateral and contralateral IL in CellSens (Olympus) using the polyline measure tool. […]

DRG [4] = test: Western blot (immunoblot) of DRG tissue after paclitaxel or eFT508 in vivo; design: species or system mouse; settings: Veh=100
[5] = DRGs in vivo after eFT508 treatment
[6] = DRG, day 10 after induction of CIPN

SMILES: Cc1cc(Nc2cc(N)ncn2)c(=O)n2c1C(=O)NC21CCCCC1 [eFT508, Tomivosertib]
- production of pro-inflammatory cytokines including TNFα, IL-6, IL-10 and CXCL10 (DLBCL cell lines; TMD8, OCI-Ly3 and HBL1 DLBCL cell lines): dose-dependent decreases
- decrease in TNFα mRNA half-life (DLBCL cell lines): 2 fold
- anti-proliferative activity (DLBCL cell lines; multiple DLBCL cell lines): anti-proliferative activity
- general translation (puromycin incorporation in the DRG) (DRG [1]): not influenced
- RagA protein level ([2]; 1 μM for 1 hr): decrease
- level of eIF4E phosphorylation ([2]; 0.1 and 1 μM, 1 hr): significantly reduced
- other signaling pathways ([2]; 0.1 and 1 μM, 1 hr): without affecting other signaling pathways
- reduction of eIF4E phosphorylation ([2]; cultured DRGs neurons): 90%
- IC50 [3]: 2 to 16 nM
- spontaneous activity in DRG neurons from paclitaxel treated mice (DRG neurons): strongly suppressed; also recorded: decreases spontaneous activity
- toxicity to DRG neurons in vitro (DRG neurons): not toxic
- treatment time needed to reduce spontaneous activity in most neurons (DRG neurons; DRG neurons from paclitaxel treated mice): Approximately 20 min
- movement speed in the open field vs naïve mice (mice): moved significantly slower
- SNI-induced changes in AIS length (infralimbic cortex): reversed
- RagA, immunoblot (DRG [4]; [5]): 67±6.02
- p4EBP1, immunoblot (DRG [4]; [5]): 53.12±7.03
- p-eIF4E, immunoblot (DRG [4]; [5]): 10±2.43

SMILES: CC(=O)O[C@H]1C(=O)[C@@]2(C)[C@H]([C@H](OC(=O)c3ccccc3)[C@]3(O)C[C@H](OC(=O)[C@H](O)[C@@H](NC(=O)c4ccccc4)c4ccccc4)C(C)=C1C3(C)C)[C@]1(OC(C)=O)CO[C@@H]1C[C@@H]2O [paclitaxel]
- spontaneous activity and nociceptor excitability (DRG neurons; cervical, thoracic and lumbar DRGs, day 10, paclitaxel 4 mg/kg every other day i.p.): caused spontaneous activity and increased nociceptor excitability
- Esyt1 protein, immunoblot (DRG [4]; DRG after CIPN induction): 230±18.30
- mTOR, immunoblot (DRG [4]; DRG after paclitaxel treatment): 195±25.27
- p-4EBP1, immunoblot (DRG [4]; DRG after paclitaxel treatment): 152±11.27
- p-eIF4E, immunoblot (DRG [4]; DRG after paclitaxel treatment): 158±10.57
- p-mTOR, immunoblot (DRG [4]; DRG after paclitaxel treatment): 131±20.27
- RagA protein level, immunoblot (DRG [4]; DRG of eIF4E^S209A mice, paclitaxel vs vehicle): 75±8.46
- S6, immunoblot (DRG [4]; [6]): 133±24.54
- p-Akt, immunoblot (DRG [4]; [6]): 96.86±6.63
- p-ERK1/2, immunoblot (DRG [4]; [6]): 107±14.94
- p-S6, immunoblot (DRG [4]; [6]): 134±24.47
- RagA protein level, immunoblot (DRG [4]; DRGs after CIPN): 181±15.35
